{
  "source": "patent US20120029047A1",
  "about": "“USE OF HDAC INHIBITORS FOR THE TREATMENT OF BONE DESTRUCTION” (priority 2007, published 2012)",
  "key": {"[1]": {"tested_on": "MM1S tumor bearing mice", "experiment": "In vivo microCT analysis of tibial cortical bone density", "parameters": "species or system SCID-beige mice", "settings": "Study #0879, 15 mg/kg, tibia", "excerpt": "Animals were anesthetized with 2% isoflurane mixed with oxygen (2 L/min.) and then placed in a mouse holder (custom made, Peter Ingold, NIBR Basel) specifically designed to align both tibiae and mounted into an in vivo high resolution microCT scanner (VivaCT40, Scanco, Switzerland). To insure correct positioning of the mouse, a scout view of bilateral tibia bones and knee joints was taken and the region of interest (ROI, 2.23 mm in length) was positioned to start at the growth plate extending distally over the area of the trabecular bone (FIG. 3). The scanner was set to a nominal isotropic voxel size of 21 μm, referred to as medium/standard resolution. […]\nFor determination of trabecular and cortical bone features, a 2.23 mm region of interest was placed to start at the growth plate extending distally. […] Trabecular bone density (BV/TV) was measured in a 0.735 mm region of a tibia (9 slices proximal and 25 slices distal from the tibial tuberosity) using SCANCO software (SCANCO, Switzerland) with a threshold of 275 is used to define calcified bone volume (BV). Cortical bone density (BV/TV) was measured in a 1.5 mm region of a tibia (15 slices proximal and 55 slices distal from the tibial tuberosity) using SCANCO software (SCANCO Switzerland) with a threshold of 275. Three-dimensional analysis was performed on the determined regions utilizing the SCANCO operational software. […]"}, "[2]": {"tested_on": "TRACP5B", "experiment": "Serum bio-marker TRACP5B ELISA (MouseTRAP Assay)", "type": "in vivo, mouse", "experimental": "A serum marker of bone metabolism, TRACP5B, was assessed for mouse serum changes. The MouseTRAP™ Assay kit is an ELISA assay (Cat#SB-TR103, IDS Fountain Hills, Ariz.). Briefly, polyclonal […] TRACP5B antibodies are incubated in 96 well plates coated with anti-rabbit IgG. This ELISA kit is specific for mouse TRACP5B only. This assay has a reported sensitivity of 0.1 U/L.\nTRACP5B serum levels were evaluated as a measure of osteoclast activity. The level of a TRACP5B was analyzed in FIG. 7 and Table 12."}, "[3]": {"tested_on": "MM1S tumor bearing mice", "experiment": "In vivo microCT analysis of tibial trabecular bone density", "parameters": "species or system SCID-beige mice", "settings": "for increase in median trabecular bone density: after 4 weeks of treatment", "excerpt": "Animals were anesthetized with 2% isoflurane mixed with oxygen (2 L/min.) and then placed in a mouse holder (custom made, Peter Ingold, NIBR Basel) specifically designed to align both tibiae and mounted into an in vivo high resolution microCT scanner (VivaCT40, Scanco, Switzerland). To insure correct positioning of the mouse, a scout view of bilateral tibia bones and knee joints was taken and the region of interest (ROI, 2.23 mm in length) was positioned to start at the growth plate extending distally over the area of the trabecular bone (FIG. 3). The scanner was set to a nominal isotropic voxel size of 21 μm, referred to as medium/standard resolution. The X-ray tube was operated at 55 kVp and […] with a focal spot size of 5 μm. Five hundred projection images were acquired per scan with an integration time of 180 ms. Tomographic images were reconstructed on a VMS cluster (HP Alpha, HP, Palo Alto, USA) in 1024×1024 pixel matrices using a conebeam back projection procedure resulting in 315 axial slices.\nFor determination of trabecular and cortical bone features, a 2.23 mm region of interest was placed to start at the growth plate extending distally. 106 axial slices were obtained using a μ-CT VivaCT40Scanner (SCANCO, Switzerland) with 55 kv, […], 180 ms integration time and 21 μm resolution. Trabecular bone density (BV/TV) was measured in a 0.735 mm region of a tibia (9 slices proximal and 25 slices distal from the tibial tuberosity) using SCANCO software (SCANCO, Switzerland) with a threshold of 275 is used to define calcified bone volume (BV). Cortical bone density (BV/TV) was measured in a 1.5 mm region of a tibia (15 slices proximal and 55 slices distal from the tibial tuberosity) using SCANCO software (SCANCO Switzerland) with a threshold of 275. Three-dimensional analysis was performed on the determined regions utilizing the SCANCO operational software. All treatment groups were scanned over the course of two days, with equal numbers of animals from each treatment group scanned each day.\nFIG. 4 describes a […] region of interest was placed to start at the growth plate extending distally. 106 axial slices were obtained using a μ-CT VivaCT40Scanner (SCANCO, Switzerland) with 55 kv, […], 180 ms integration time and 21 μm resolution. Trabecular bone density, bone volume/total volume (BV/TV), was measured in a 0.735 mm region of a tibia (10 slices proximal and 25 slices distal from the tibial tuberosity) using SCANCO software (SCANCO, Switzerland) with a threshold of 275. Cortical bone density, bone volume/total volume (BV/TV), was measured in a 1.5 mm region of a tibia (15 slices proximal and 55 slices distal from the tibial tuberosity) using SCANCO software (SCANCO Switzerland) with a threshold of 275."}, "[4]": {"tested_on": "MM1S cells", "experiment": "MM1S disseminated multiple myeloma model, tumor burden by bioluminescence", "type": "in vivo, SCID-beige mice", "experimental": "Female SCID-beige mice were injected with MM1S cells (2×10^6) intravenously (iv) into the tail vein on Day 0. Treatment was initiated on Day 10 when the average tumor burden, as determined by bioluminescence, reached approximately 8.0×10^5-1.0×10^6 photons per second. All treatment groups consisted of 8 animals. […] Tumor burden and body weights were recorded once a week during the active dosing period. In vivo micro-computed tomography (microCT) images were acquired in live animals on day 32 and 33 (Study #1) or Day 34 and 35 (Study #2). In the second study, animals were individually monitored until achievement of clinical endpoint. Treatments were started on Day 10 post-iv tail implantation (2.0 million cells/animal). […] Vehicle control (D5W) was administered ip times per week, for 3 weeks. Initial group size: 8 animals. Final efficacy data and body weight change were calculated 72 hours post-last dose. Treatments were started on Day 10 post-iv tail implantation (2.0 million cells/animal). […] Vehicle control (D5W) was administered ip times per week, for 3 weeks. Initial group size: 8 animals. With respect to FIG. 2, treatments were started on Day 11 post-iv tail implantation (2.0 million cells/animal). NVP-LBH589-CU was administered ip, at 15 mg/kg (A), or 10 and 20 mg/kg (B), 5 times a week (qd×5/wk) for 4 weeks. Vehicle control (D5W) was administered ip 5 times a week (qd×5/wk), for 4 weeks. Bortezomib was administered iv, at 0.2 mg/kg, once per week (qwk) or 1 mg/kg, twice per week in Study #0879 for 4 weeks (biwk) (B). Initial group size: 8 animals. Final efficacy data are shown in the A panel for Study #0879 and B panel for Study #0942. Body weight changes were calculated on 24 hours post-last dose for each study (right panels)."}, "[5]": {"tested_on": "MM1S cells", "experiment": "Time to clinical endpoint in MM1S model (Study #0942)", "type": "in vivo, SCID-beige mice", "settings": "for Median Time to Clinical Endpoint: endpoint = clinical score of 3", "experimental": "Female SCID-beige mice were injected with MM1S cells (2×10^6) intravenously (iv) into the tail vein on Day 0. Treatment was initiated on Day 10 when the average tumor burden, as determined by bioluminescence, reached approximately 8.0×10^5-1.0×10^6 photons per second. All treatment groups consisted of 8 animals. […] Tumor burden and body weights were recorded once a week during the active dosing period. In vivo micro-computed tomography (microCT) images were acquired in live animals on day 32 and 33 (Study #1) or Day 34 and 35 (Study #2). In the second study, animals were individually monitored until achievement of clinical endpoint. […] Each animal was monitored daily for progression of signs of disease progression, including mobility and general health. Animals were scored on a clinical scale from 0-4. […] These animals were removed from analysis due to treatment related deaths. […] The median time to endpoint for the vehicle treated animals was 37 days."}, "[6]": {"settings": "Study #0879, 15 mg/kg IP qdx5, 31 days after implantation"}, "[7]": {"settings": "Study #0942, 10 mg/kg IP qdx5, 35 days after implantation"}, "[8]": {"settings": "Study #0942, 20 mg/kg IP qdx5, 35 days after implantation"}},
  "data": [
    {"smiles": "Cc1[nH]c2ccccc2c1CCNCc1ccc(/C=C/C(=O)NO)cc1", "note": "[LBH589, N-hydroxy-3-[4-[[[2-(2-methyl-1H-indol-3-yl)-ethyl]-amino]methyl]phenyl]-2E-2-propenamide]", "values": [
      {"measurement": "Mean Cortical Density (BV/TV)", "setting": "[1]", "result": 98.3, "unit": "%"},
      {"measurement": "Mean TRACP5B Serum Levels", "setting": "[2]; Study #0879, 15 mg/kg", "result": 7.1},
      {"measurement": "decrease of serum levels of TRACP5B compared to vehicle", "setting": "[2]; Study #0879, LBH589 alone", "result": 41, "unit": "%"},
      {"measurement": "increase in mean trabecular bone density", "setting": "[3]; Study #0879, 15 mg/kg, after 3 weeks of treatment", "result": 5.5, "unit": "fold"},
      {"measurement": "Mean Trabecular Density (BV/TV)", "setting": "[3]; Study #0879, 15 mg/kg, tibia", "result": 14.48, "unit": "% BV/TV"},
      {"measurement": "increase in median trabecular bone density", "setting": "[3]; Study #0942, 10 mg/kg", "result": 11.8, "unit": "fold"},
      {"measurement": "Median Trabecular Density (BV/TV)", "setting": "[3]; Study #0942, 10 mg/kg, tibia", "result": 8.23, "unit": "% BV/TV"},
      {"measurement": "increase in median trabecular bone density", "setting": "[3]; Study #0942, 20 mg/kg", "result": 19.1, "unit": "fold"},
      {"measurement": "Median Trabecular Density (BV/TV)", "setting": "[3]; Study #0942, 20 mg/kg, tibia", "result": 12.89, "unit": "% BV/TV"},
      {"measurement": "% Regression", "setting": "[4]; [6]", "result": "None"},
      {"measurement": "% T/C", "setting": "[4]; [6]", "result": 22, "unit": "%"},
      {"measurement": "Delta Mean Tumor Burden (mean ± SEM)", "setting": "[4]; [6]", "result": "292.4E+6 ± 92.6E+6", "unit": "photons/sec"},
      {"measurement": "reduction in tumor burden", "setting": "[4]; Study #0879, 15 mg/kg qdX5, Day 31", "result": "~78", "unit": "%"},
      {"measurement": "% Regression", "setting": "[4]; [7]", "result": "None"},
      {"measurement": "% T/C", "setting": "[4]; [7]", "result": 31, "unit": "%"},
      {"measurement": "Delta Mean Tumor Burden (mean ± SEM)", "setting": "[4]; [7]", "result": "348.5E+6 ± 49.6E+6", "unit": "photons/sec"},
      {"measurement": "reduction in tumor burden", "setting": "[4]; Study #0942, 10 mg/kg qdX5, Day 35", "result": "~79", "unit": "%"},
      {"measurement": "% Regression", "setting": "[4]; [8]", "result": "None"},
      {"measurement": "% T/C", "setting": "[4]; [8]", "result": 9, "unit": "%"},
      {"measurement": "Delta Mean Tumor Burden (mean ± SEM)", "setting": "[4]; [8]", "result": "107.7E+6 ± 42.6E+6", "unit": "photons/sec"},
      {"measurement": "reduction in tumor burden", "setting": "[4]; Study #0942, 20 mg/kg qdX5, Day 35", "result": "~91", "unit": "%"},
      {"measurement": "significance of reduction in tumor burden", "setting": "[4]; both studies (#0879 and #0942)", "result": "statistically significant"},
      {"measurement": "Median Time to Clinical Endpoint", "setting": "[5]; Study #0942, 10 mg/kg", "result": 54, "unit": "days"},
      {"measurement": "animals without symptoms of disease 80 days after implant", "setting": "[5]; Study #0942, 20 mg/kg", "result": "One of the remaining six"},
      {"measurement": "Median Time to Clinical Endpoint", "setting": "[5]; Study #0942, 20 mg/kg", "result": 61, "unit": "days"}
    ]}
  ]
}
